Measurements from US11771662B2, “Analgesic formulation for control of pain in dogs” (Kansas State University Research Foundation, priority 2017, dated 2023).

Experiments:
[1] = tested on: dogs undergoing ovariohysterectomy; test: Adverse effects in ovariohysterectomy clinical trial (Example IV); settings: injection group, 0.5 mg/kg SC q 4 h
healthy dogs = test: Sedation assessment after oral methadone alone or with oral fluconazole (Example I); type: in vivo, dog; settings: methadone alone 1 mg/kg PO
[2] = tested on: dogs undergoing ovariohysterectomy; test: Sedation scores at each time point in ovariohysterectomy clinical trial (Example IV); settings: 0.5 mg/kg SC q 4 h
[3] = tested on: dogs undergoing ovariohysterectomy; test: Postoperative pain: Glasgow Composite Pain Scale and need for rescue analgesic (Example IV); settings: 0.5 mg/kg SC q 4 h; total 13
in vivo = test: in vivo
Method: Five healthy mixed breed, purpose bred dogs were included in this study. […] Blood was obtained immediately prior to the 4 hour dose (i.e. a trough sample).

[4] = Plasma methadone concentrations by liquid chromatography/triple quadrupole mass spectrometry (Example I); settings: dog, in vivo
[5] = 1 mg/kg, Mean plasma methadone concentration, methadone alone 1 mg/kg PO, 6 dogs
[6] = 1 mg/kg, Plasma methadone concentration, individual dogs, methadone alone 1 mg/kg PO, Dog 1-6
[7] = Mean plasma methadone concentration, methadone 1 mg/kg PO 24 h after starting fluconazole 2.5 mg/kg PO q 12 h

CCC(=O)C(CC(C)N(C)C)(c1ccccc1)c1ccccc1 (racemic) [methadone]
Perioperative nausea or vomiting (dogs affected/dogs in group) [1]: 2/13 | Sedation (healthy dogs): not noted in any of the dogs at any time point | Sedation Score Moderate (number of dogs) ([2]; Day 0 5:00 PM): 0 | Sedation Score None (number of dogs) ([2]; Day 0 5:00 PM): 13 | Sedation Score Profound (number of dogs) ([2]; Day 0 5:00 PM): 0 | Sedation Score Slight (number of dogs) ([2]; Day 0 5:00 PM): 0 | Sedation Score Moderate (number of dogs) ([2]; Day 1 1:00 PM): 3 | Sedation Score None (number of dogs) ([2]; Day 1 1:00 PM): 1 | Sedation Score Profound (number of dogs) ([2]; Day 1 1:00 PM): 3 | Sedation Score Slight (number of dogs) ([2]; Day 1 1:00 PM): 6 | Sedation Score Moderate (number of dogs) ([2]; Day 1 4:00 PM): 0 | Sedation Score None (number of dogs) ([2]; Day 1 4:00 PM): 5 | Sedation Score Profound (number of dogs) ([2]; Day 1 4:00 PM): 0 | Sedation Score Slight (number of dogs) ([2]; Day 1 4:00 PM): 8 | Sedation Score Moderate (number of dogs) ([2]; Day 1 6:00 PM): 1 | Sedation Score None (number of dogs) ([2]; Day 1 6:00 PM): 4 | Sedation Score Profound (number of dogs) ([2]; Day 1 6:00 PM): 0 | Sedation Score Slight (number of dogs) ([2]; Day 1 6:00 PM): 8 | Sedation Score Moderate (number of dogs) ([2]; Day 1 8:00 PM): 0 | Sedation Score None (number of dogs) ([2]; Day 1 8:00 PM): 9 | Sedation Score Profound (number of dogs) ([2]; Day 1 8:00 PM): 0 | Sedation Score Slight (number of dogs) ([2]; Day 1 8:00 PM): 6 | Sedation Score Moderate (number of dogs) ([2]; Day 1 12:00 PM): 1 | Sedation Score None (number of dogs) ([2]; Day 1 12:00 PM): 2 | Sedation Score Profound (number of dogs) ([2]; Day 1 12:00 PM): 0 | Sedation Score Slight (number of dogs) ([2]; Day 1 12:00 PM): 10 | Sedation Score Moderate (number of dogs) ([2]; Day 2 5:00 PM): 0 | Sedation Score None (number of dogs) ([2]; Day 2 5:00 PM): 13 | Sedation Score Profound (number of dogs) ([2]; Day 2 5:00 PM): 0 | Sedation Score Slight (number of dogs) ([2]; Day 2 5:00 PM): 0 | Sedation Score Moderate (number of dogs) ([2]; Day 2 6:30 AM): 0 | Sedation Score None (number of dogs) ([2]; Day 2 6:30 AM): 13 | Sedation Score Profound (number of dogs) ([2]; Day 2 6:30 AM): 0 | Sedation Score Slight (number of dogs) ([2]; Day 2 6:30 AM): 0 | Sedation Score Moderate (number of dogs) ([2]; Day 3 7:00 AM): 0 | Sedation Score None (number of dogs) ([2]; Day 3 7:00 AM): 13 | Sedation Score Profound (number of dogs) ([2]; Day 3 7:00 AM): 0 | Sedation Score Slight (number of dogs) ([2]; Day 3 7:00 AM): 0 | Treatment Outcome: Failure (number of dogs, rescue analgesic needed) [3]: 0 | Treatment Outcome: Success (number of dogs, no rescue analgesic) [3]: 13 | Persistence of methadone plasma concentrations compared to the standard formulation of methadone (in vivo; injectable opioid formulation containing an azole antifungal): persisted longer | Time to which methadone plasma concentrations persisted (in vivo; injectable opioid formulation containing an azole antifungal, SC at 0 and 4 h, one dog): at least 32 hours | concentration at 32 h (in vivo; mixed breed, dog, in vivo, sc): 4 ng/mL | concentration at 0.333 h [4, 5]: 0.8 ng/mL | concentration at 0.667 h ([4]; 1 mg/kg, Mean plasma methadone concentration, methadone alone 1 mg/kg PO, 0.667 hr, 6 dogs): 1.3 ng/mL | concentration at 1 h [4, 5]: 1.2 ng/mL | concentration at 2 h ([4]; 1 mg/kg, Mean plasma methadone concentration, methadone alone 1 mg/kg PO, 2 hr, 6 dogs): 0.7 ng/mL | concentration at 4 h [4, 5]: 0.4 ng/mL | concentration at 0 h [4, 6]: < 0.5 ng/mL | concentration at 1 h [4, 6]: 1 ng/mL | concentration at 4 h [4, 6]: < 0.5 ng/mL | concentration at 6 h ([4]; 1 mg/kg, Plasma methadone concentration, individual dogs, methadone alone 1 mg/kg PO, 6 hr, Dog 1-6): < 0.5 ng/mL | concentration at 8 h ([4]; 1 mg/kg, Plasma methadone concentration, individual dogs, methadone alone 1 mg/kg PO, 8 hr, Dog 1-6): < 0.5 ng/mL | concentration at 12 h ([4]; 1 mg/kg, Plasma methadone concentration, individual dogs, methadone alone 1 mg/kg PO, 12 hr, Dog 1-6): < 0.5 ng/mL | concentration at 24 h ([4]; 1 mg/kg, Plasma methadone concentration, individual dogs, methadone alone 1 mg/kg PO, 24 hr, Dog 1-6): < 0.5 ng/mL | concentration at 0 h [4, 7]: 0 ng/mL | concentration at 0.333 h [4, 7]: 0.8 ng/mL
